pEC50: −log10 of the molar value.
Legend:
[1] = Half life in human; format: ADME
Homo sapiens [2] = organism: Homo sapiens; experiment: Inhibition of human protein kinase A at 10 uM relative to control
Homo sapiens [3] = organism: Homo sapiens; experiment: Inhibition of human PDE3A1A at 10 uM relative to control
[4] = target: cGMP-specific 3',5'-cyclic phosphodiesterase (Homo sapiens) (UniProt O76074); experiment: Inhibition of human PDE5A1 at 10 uM relative to control
Acetylcholinesterase = Acetylcholinesterase (Homo sapiens, UniProt P22303); experiment: Inhibition of acetylcholinesterase (unknown origin) at 10 uM relative to control
[5] = target: Neuropeptide Y receptor type 2 (Homo sapiens) (UniProt P49146); experiment: Inhibition of human NPY2R expressed in CHO-K1 cells at 10 uM relative to control; format: cell-based
[6] = target: Substance-P receptor (Homo sapiens) (UniProt P25103); experiment: Inhibition of human NK1 at 10 uM relative to control
[7] = target: Endothelin-1 receptor (Homo sapiens) (UniProt P25101); experiment: Inhibition of human ET-A at 10 uM relative to control
[8] = target: Type-1 angiotensin II receptor (Homo sapiens) (UniProt P30556); experiment: Inhibition of human AT1 receptor expressed in CHO-K1 cells at 10 uM relative to control; format: cell-based
hERG (KCNH2) = hERG (KCNH2) (Homo sapiens, UniProt Q12809); experiment: Inhibition of human ERG in HEK293 cells at 10 uM relative to control; format: cell-based; settings: HEK293 cells that express hERG
Homo sapiens [9] = organism: Homo sapiens; experiment: Inhibition of Calcium-activated potassium channel channel (unknown origin); settings: concentration not given here
[10] = target: Sigma intracellular receptor 2 (Homo sapiens) (UniProt Q5BJF2); experiment: Inhibition of sigma 2 receptor (unknown origin) at 10 uM relative to control
[11] = target: Sigma non-opioid intracellular receptor 1 (Homo sapiens) (UniProt Q99720); experiment: Inhibition of sigma 1 receptor (unknown origin) at 10 uM relative to control
Homo sapiens [12] = organism: Homo sapiens; experiment: Inhibition of human 5HT-6 receptor at 10 uM relative to control
[13] = target: 5-hydroxytryptamine receptor 4 (Homo sapiens) (UniProt Q13639); experiment: Inhibition of 5HT-4 (unknown origin) receptor at 10 uM relative to control
[14] = target: T1, 5-hydroxytryptamine receptor 2A (Homo sapiens, UniProt P28223); experiment: Inhibition of human 5HT-2A receptor at 10 uM relative to control
[15] = target: T1, 5-hydroxytryptamine receptor 2A; experiment: Inhibition of human 5HT-2A receptor expressed in CHO-K1 cells at 10 uM relative to control; format: cell-based
[16] = target: 5-hydroxytryptamine receptor 1A (Homo sapiens) (UniProt P08908); experiment: Inhibition of human 5HT-1a receptor at 10 uM relative to control
[17] = target: Sodium-dependent serotonin transporter (Homo sapiens) (UniProt P31645); experiment: Inhibition of human serotonin transporter expressed in HEK293 cells at 10 uM relative to control; format: cell-based
[18] = target: Mu-type opioid receptor (Homo sapiens) (UniProt P35372); experiment: Inhibition of human Mu-type opioid receptor at 10 uM relative to control
Homo sapiens [19] = organism: Homo sapiens; experiment: Inhibition of human delta 2-type opioid receptor at 10 uM relative to control
[20] = target: Muscarinic acetylcholine receptor M5 (Homo sapiens) (UniProt P08912); experiment: Inhibition of human muscarinic M5 receptor expressed in CHO-K1 cells at 10 uM relative to control; format: cell-based
[21] = target: Muscarinic acetylcholine receptor M2 (Homo sapiens) (UniProt P08172); experiment: Inhibition of human muscarinic M2 receptor expressed in CHO-K1 cells at 10 uM relative to control; format: cell-based
[22] = target: Muscarinic acetylcholine receptor M1 (Homo sapiens) (UniProt P11229); experiment: Inhibition of human muscarinic M1 receptor expressed in CHO-K1 cells at 10 uM relative to control; format: cell-based
Histamine H3 receptor = Histamine H3 receptor (Homo sapiens, UniProt Q9Y5N1); experiment: Inhibition of human histamine H3 receptor expressed in CHO-K1 cells at 10 uM relative to control; format: cell-based
[23] = target: Histamine H2 receptor (Homo sapiens) (UniProt P25021); experiment: Inhibition of human histamine H2 receptor expressed in CHO-K1 cells at 10 uM relative to control; format: cell-based
Homo sapiens [24] = organism: Homo sapiens; experiment: Inhibition of Glutamate receptor ionotropic NMDA glycine,strychnine-sensitive site (unknown origin) at 10 uM relative to control
Homo sapiens [25] = organism: Homo sapiens; experiment: Inhibition of Glutamate receptor ionotropic NMDA agonist site (unknown origin) at 10 uM relative to control
Homo sapiens [26] = organism: Homo sapiens; experiment: Inhibition of Glutamate receptor ionotropic AMPA site (unknown origin) at 10 uM relative to control
[27] = target: Gamma-aminobutyric acid type B receptor subunit 1 (Homo sapiens) (UniProt Q9UBS5); experiment: Inhibition of human GABA-B1 at 10 uM relative to control
[28] = target: Gamma-aminobutyric acid receptor subunit alpha-1 (Homo sapiens) (UniProt P14867); experiment: Inhibition of GABA-A alpha1 BDZ site (unknown origin) at 10 uM relative to control
D(3) dopamine receptor = D(3) dopamine receptor (Homo sapiens, UniProt P35462); experiment: Inhibition of human dopamine D3 receptor expressed in CHO-K1 cells at 10 uM relative to control; format: cell-based
[29] = target: Sodium-dependent dopamine transporter (Homo sapiens) (UniProt Q01959); experiment: Inhibition of human dopamine transporter expressed in CHO-K1 cells at 10 uM relative to control; format: cell-based
[30] = target: Beta-1 adrenergic receptor (Homo sapiens) (UniProt P08588); experiment: Inhibition of human adrenergic receptor beta1 expressed in CHO-K1 cells at 10 uM relative to control; format: cell-based
[31] = target: Alpha-2C adrenergic receptor (Homo sapiens) (UniProt P18825); experiment: Inhibition of human adrenergic receptor alpha2C expressed in CHO-K1 cells at 10 uM relative to control; format: cell-based
[32] = target: Alpha-2B adrenergic receptor (Homo sapiens) (UniProt P18089); experiment: Inhibition of human adrenergic receptor alpha2B expressed in CHO-K1 cells at 10 uM relative to control; format: cell-based
[33] = target: Adenosine receptor A1 (Homo sapiens) (UniProt P30542); experiment: Inhibition of human adenosine receptor A1 expressed in CHO-K1 cells at 10 uM relative to control; format: cell-based
Homo sapiens [34] = organism: Homo sapiens; experiment: Inhibition of human adenosine transporter at 10 uM relative to control
[35] = target: Alpha-2A adrenergic receptor (Homo sapiens) (UniProt P08913); experiment: Inhibition of human adrenergic receptor alpha2A expressed in CHO-K1 cells at 10 uM relative to control; format: cell-based
[36] = target: Alpha-1B adrenergic receptor (Homo sapiens) (UniProt P35368); experiment: Inhibition of human adrenergic receptor alpha1B expressed in CHO-K1 cells at 10 uM relative to control; format: cell-based
[37] = target: Alpha-1A adrenergic receptor (Homo sapiens) (UniProt P35348); experiment: Inhibition of human adrenergic receptor alpha1A expressed in CHO-K1 cells at 10 uM relative to control; format: cell-based
[38] = target: Neuronal acetylcholine receptor; alpha4/beta2 (Rattus norvegicus, UniProt P09483+P12390)
Description: Agonist activity at alpha4beta2 nAChR in rat frontal cortex membrane

T1 sequence (P28223 whole entry): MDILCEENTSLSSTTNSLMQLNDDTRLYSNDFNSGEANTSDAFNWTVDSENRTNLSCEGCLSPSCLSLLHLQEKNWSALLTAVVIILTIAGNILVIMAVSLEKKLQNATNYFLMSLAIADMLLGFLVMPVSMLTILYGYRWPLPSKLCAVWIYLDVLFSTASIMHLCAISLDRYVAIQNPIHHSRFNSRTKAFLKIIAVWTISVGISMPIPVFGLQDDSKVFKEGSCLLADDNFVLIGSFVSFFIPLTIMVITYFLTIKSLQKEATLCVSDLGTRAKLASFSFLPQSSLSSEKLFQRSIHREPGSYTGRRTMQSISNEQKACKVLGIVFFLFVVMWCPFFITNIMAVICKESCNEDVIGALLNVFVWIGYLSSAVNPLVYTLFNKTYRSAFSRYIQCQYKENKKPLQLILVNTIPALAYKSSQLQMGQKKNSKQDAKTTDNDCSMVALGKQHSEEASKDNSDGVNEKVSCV
Sequence of Endothelin-1 receptor (Homo sapiens) (P25101 whole entry): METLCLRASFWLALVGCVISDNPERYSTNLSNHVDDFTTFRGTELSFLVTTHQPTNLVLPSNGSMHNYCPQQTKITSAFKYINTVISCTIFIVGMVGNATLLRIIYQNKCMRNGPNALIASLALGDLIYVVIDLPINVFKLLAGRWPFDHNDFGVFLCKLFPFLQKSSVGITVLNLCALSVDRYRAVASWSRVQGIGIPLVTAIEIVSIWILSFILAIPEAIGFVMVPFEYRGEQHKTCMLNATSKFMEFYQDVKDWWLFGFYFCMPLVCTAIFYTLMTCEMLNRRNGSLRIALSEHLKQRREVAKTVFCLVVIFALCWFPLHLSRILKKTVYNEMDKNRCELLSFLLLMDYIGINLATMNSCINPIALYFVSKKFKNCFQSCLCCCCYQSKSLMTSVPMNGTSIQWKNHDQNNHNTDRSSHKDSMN
Sequence of Muscarinic acetylcholine receptor M5 (Homo sapiens) (P08912 whole entry): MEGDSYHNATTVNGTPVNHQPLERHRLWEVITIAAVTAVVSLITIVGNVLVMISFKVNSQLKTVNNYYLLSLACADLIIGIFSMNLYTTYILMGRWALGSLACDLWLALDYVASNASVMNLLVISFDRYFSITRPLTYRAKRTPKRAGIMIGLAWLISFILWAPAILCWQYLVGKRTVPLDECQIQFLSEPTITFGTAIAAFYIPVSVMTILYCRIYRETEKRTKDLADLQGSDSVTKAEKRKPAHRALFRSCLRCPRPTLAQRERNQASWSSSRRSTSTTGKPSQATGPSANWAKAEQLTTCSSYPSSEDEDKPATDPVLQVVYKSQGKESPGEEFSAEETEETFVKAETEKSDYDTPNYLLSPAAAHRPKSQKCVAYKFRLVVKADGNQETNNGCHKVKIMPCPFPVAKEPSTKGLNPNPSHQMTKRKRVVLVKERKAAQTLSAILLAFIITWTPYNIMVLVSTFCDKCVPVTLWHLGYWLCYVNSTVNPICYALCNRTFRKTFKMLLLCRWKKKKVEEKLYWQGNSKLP
Sequence of Type-1 angiotensin II receptor (Homo sapiens) (P30556 whole entry): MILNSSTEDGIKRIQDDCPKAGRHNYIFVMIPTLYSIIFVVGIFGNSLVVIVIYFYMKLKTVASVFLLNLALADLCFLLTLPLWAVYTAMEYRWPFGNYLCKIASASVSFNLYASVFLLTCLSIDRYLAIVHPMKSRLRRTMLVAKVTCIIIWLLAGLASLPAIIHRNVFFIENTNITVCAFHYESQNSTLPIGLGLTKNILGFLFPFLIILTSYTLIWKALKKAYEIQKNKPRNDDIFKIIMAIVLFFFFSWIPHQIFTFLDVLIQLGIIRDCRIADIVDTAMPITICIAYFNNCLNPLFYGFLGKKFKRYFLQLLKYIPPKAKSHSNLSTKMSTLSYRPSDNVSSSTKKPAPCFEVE
Sequence of Histamine H3 receptor (Q9Y5N1 whole entry): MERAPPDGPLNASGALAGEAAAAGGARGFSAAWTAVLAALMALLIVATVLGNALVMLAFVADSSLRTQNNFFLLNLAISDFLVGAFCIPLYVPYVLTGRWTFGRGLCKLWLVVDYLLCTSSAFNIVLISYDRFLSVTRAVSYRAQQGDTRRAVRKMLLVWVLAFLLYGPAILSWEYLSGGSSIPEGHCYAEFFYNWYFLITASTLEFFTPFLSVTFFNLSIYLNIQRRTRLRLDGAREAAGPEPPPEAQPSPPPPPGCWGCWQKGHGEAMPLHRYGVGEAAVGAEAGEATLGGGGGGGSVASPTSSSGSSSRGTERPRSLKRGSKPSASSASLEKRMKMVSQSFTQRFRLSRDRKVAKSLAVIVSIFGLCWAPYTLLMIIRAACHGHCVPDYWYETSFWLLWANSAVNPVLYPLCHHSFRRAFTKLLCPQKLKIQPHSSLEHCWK
Sequence of Histamine H2 receptor (Homo sapiens) (P25021 whole entry): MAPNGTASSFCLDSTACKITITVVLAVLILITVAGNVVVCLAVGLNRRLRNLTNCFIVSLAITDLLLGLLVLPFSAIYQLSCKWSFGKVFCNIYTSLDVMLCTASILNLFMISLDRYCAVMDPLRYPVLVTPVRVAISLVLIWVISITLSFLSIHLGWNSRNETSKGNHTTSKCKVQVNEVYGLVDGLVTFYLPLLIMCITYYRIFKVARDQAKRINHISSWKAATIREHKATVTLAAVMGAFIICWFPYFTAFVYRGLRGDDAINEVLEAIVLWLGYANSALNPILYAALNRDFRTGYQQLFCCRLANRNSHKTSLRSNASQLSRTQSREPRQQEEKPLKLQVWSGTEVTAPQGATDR
Sequence of Sodium-dependent serotonin transporter (Homo sapiens) (P31645 whole entry, looked up): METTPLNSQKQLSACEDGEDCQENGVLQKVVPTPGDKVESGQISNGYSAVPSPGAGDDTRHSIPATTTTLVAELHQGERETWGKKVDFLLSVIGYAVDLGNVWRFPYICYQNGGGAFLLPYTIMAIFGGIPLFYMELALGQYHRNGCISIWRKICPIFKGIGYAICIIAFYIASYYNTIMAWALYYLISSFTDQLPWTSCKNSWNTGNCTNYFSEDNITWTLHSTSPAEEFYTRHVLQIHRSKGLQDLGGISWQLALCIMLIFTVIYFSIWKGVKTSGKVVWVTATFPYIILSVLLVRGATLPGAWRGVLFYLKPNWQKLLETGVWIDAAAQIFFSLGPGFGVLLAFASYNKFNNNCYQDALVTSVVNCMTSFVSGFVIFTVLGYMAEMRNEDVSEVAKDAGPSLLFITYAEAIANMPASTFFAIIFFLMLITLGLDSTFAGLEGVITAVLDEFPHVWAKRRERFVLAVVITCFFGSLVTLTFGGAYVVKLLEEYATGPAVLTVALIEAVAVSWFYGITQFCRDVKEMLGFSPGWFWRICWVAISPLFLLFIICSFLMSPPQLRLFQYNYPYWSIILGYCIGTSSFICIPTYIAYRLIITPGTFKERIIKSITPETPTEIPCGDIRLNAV
Sequence of Neuropeptide Y receptor type 2 (Homo sapiens) (P49146 whole entry): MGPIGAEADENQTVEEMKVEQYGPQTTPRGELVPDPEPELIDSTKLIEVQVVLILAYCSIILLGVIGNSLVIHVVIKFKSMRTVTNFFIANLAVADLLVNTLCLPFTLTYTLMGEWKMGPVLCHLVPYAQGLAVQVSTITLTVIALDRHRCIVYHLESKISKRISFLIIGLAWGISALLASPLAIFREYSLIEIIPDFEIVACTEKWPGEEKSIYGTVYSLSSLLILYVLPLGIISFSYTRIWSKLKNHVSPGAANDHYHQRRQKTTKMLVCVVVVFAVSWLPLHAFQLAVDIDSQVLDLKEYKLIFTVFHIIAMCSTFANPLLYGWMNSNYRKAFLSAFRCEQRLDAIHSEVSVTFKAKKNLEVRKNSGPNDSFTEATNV
Sequence of Muscarinic acetylcholine receptor M1 (Homo sapiens) (P11229 whole entry): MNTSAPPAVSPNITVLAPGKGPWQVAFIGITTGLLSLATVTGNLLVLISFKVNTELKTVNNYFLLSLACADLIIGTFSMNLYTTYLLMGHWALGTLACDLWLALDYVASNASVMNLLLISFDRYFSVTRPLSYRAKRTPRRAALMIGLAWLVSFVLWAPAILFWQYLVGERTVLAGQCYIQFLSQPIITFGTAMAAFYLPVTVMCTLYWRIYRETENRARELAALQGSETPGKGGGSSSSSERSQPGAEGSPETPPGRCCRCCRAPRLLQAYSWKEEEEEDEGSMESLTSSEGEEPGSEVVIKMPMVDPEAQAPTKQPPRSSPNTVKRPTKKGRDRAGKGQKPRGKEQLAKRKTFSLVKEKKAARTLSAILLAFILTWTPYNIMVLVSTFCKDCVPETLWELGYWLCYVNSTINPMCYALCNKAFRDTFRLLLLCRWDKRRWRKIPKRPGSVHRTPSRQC
Sequence of 5-hydroxytryptamine receptor 1A (Homo sapiens) (P08908 whole entry): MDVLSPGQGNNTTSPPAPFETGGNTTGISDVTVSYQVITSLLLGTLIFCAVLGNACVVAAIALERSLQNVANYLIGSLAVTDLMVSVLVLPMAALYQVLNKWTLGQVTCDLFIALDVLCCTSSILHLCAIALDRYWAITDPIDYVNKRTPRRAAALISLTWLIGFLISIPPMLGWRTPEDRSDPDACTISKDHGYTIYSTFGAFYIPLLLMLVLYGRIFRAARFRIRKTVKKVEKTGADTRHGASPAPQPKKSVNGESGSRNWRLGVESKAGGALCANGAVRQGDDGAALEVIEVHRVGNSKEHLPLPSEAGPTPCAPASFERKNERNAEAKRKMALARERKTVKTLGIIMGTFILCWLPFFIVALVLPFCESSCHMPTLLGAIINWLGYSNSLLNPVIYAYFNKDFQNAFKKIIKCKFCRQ
Sequence of Adenosine receptor A1 (Homo sapiens) (P30542 whole entry): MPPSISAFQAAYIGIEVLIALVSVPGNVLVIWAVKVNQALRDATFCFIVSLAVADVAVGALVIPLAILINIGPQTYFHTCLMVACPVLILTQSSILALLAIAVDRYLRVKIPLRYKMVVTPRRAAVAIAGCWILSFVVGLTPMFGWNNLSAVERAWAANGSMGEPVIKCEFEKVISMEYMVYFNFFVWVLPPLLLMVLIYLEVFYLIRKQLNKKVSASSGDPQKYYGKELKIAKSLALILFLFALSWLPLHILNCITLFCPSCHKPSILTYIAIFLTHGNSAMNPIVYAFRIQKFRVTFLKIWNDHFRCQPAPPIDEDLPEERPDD

CN1C(=O)CC[C@H]1c1cccnc1 [COTININE]
half-life [1]: 19 h
inhibition (Homo sapiens [2]): < 50%
inhibition (Homo sapiens [3]): < 50%
inhibition [4]: < 50%
inhibition (Acetylcholinesterase): < 50%
inhibition [5]: < 50%
inhibition [6]: < 50%
inhibition [7]: < 50%
inhibition [8]: < 50%
inhibition at 10 µM (hERG (KCNH2)): < 50%
inhibition (Homo sapiens [9]): < 50%
inhibition [10]: < 50%
inhibition [11]: < 50%
inhibition (Homo sapiens [12]): < 50%
inhibition [13]: < 50%
inhibition [14]: < 50%
inhibition [15]: < 50%
inhibition [16]: < 50%
inhibition [17]: < 50%
inhibition [18]: < 50%
inhibition (Homo sapiens [19]): < 50%
inhibition [20]: < 50%
inhibition [21]: < 50%
inhibition [22]: < 50%
inhibition (Histamine H3 receptor): < 50%
inhibition [23]: < 50%
inhibition (Homo sapiens [24]): < 50%
inhibition (Homo sapiens [25]): < 50%
inhibition (Homo sapiens [26]): < 50%
inhibition [27]: < 50%
inhibition [28]: < 50%
inhibition (D(3) dopamine receptor): < 50%
inhibition [29]: < 50%
inhibition [30]: < 50%
inhibition [31]: < 50%
inhibition [32]: < 50%
inhibition [33]: < 50%
inhibition (Homo sapiens [34]): < 50%
inhibition [35]: < 50%
inhibition [36]: < 50%
inhibition [37]: < 50%
pEC50 [38]: 4.68

From ChEMBL document CHEMBL4673260, “Pyridine alkaloids with activity in the central nervous system” (Bioorg Med Chem, 2020)
